System: macular degeneration patients
Assay: Clinical study of geographic atrophy progression in macular degeneration patients, treated versus placebo cohort
Assay type: in vivo, human
Description: This example illustrates the reduction in the rate of macular degeneration progression in a cohort of patients treated with deuterated docosahexaenoic acid ethyl ester similar to that of Example 1, as compared to a cohort of placebo patients. Specifically, the treated cohort […]. The patients are maintained on this dosing regimen throughout the clinical study. Periodic measurements of further geographic atrophy development are obtained.
Dosing is continued for 6 or 12, or 18 or 24 months. At that time, the average extent of geographic atrophy progression is measured for each cohort. The efficacy of the treatment protocol is evaluated by comparing the extent of geographic atrophy progression in a treated population against a placebo population. […]
Alternatively, the rate of disease progression for an individual patient can be assessed by the following: • a) determine the rate of disease progression for said individual patient by measuring the extent of geographic atrophy in the patient's retina at the start of therapy and at 6, 12, 18 or 24 months post start of therapy and assigning a […] value “D” to that differential; • b) determine the average rate of disease progression for a cohort of patients treated with placebo (safflower oil) by measuring the extent of geographic atrophy in each of the patient's retina at the start of therapy and at 6, 12, 18 or 24 months post start of therapy, determining the difference between the extent of atrophy at the start of therapy and at the later time point, and then obtaining an average for that differential and assigning a second value designated as “E” to that average differential; • c) calculating the difference between D and E and assign “F” to that value (e.g, E−D=F); • d) assign a positive value to “F” if E is greater than D; • e) assign a negative value to “F” if E is less than D; and • f) divide F by E and multiply by 100 [(F/E)×100]. […]

[1] = 6, 12, 18 or 24 months post start of therapy, placebo safflower oil

## Deuterated Docosahexaenoic Acid Ethyl Ester
250 mg/day, dosing for 6 or 12, or 18 or 24 months, versus safflower oil placebo cohort
  reduction in the rate of disease progression (extent of geographic atrophy progression, treated population against placebo population): statistically significant reduction in the rate of disease progression
[1]
  percent reduction in geographic atrophy, individual treated patient vs placebo cohort [(F/E)×100]: positive percent reduction in geographic atrophy that is statistically significant
  percent reduction in geographic atrophy, treated cohort vs placebo cohort [(C/B)×100]: positive percent reduction in geographic atrophy that is statistically significant

Reference: patent publication US20250099415A1, “Methods for Inhibiting the Progression of Oxidative Retinal Disease” (BioJiva LLC, priority 2021, published 2025)
